The target in assay [1] is T1, human TRPV1 (Homo sapiens (Human), UniProt Q8NER1). In words: Capsaicin Activation Assay (intracellular Ca2+, FLIPR). It counts as cell-based. The settings on record: recombinant HEK293 cells expressing hTRPV1, 50 nM capsaicin. Summed up:
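Ca2+ fluorescence was recorded by FLIPR every 1 to 5 seconds in HEK293 cells, clonally selected for stable human TRPV1 expression and plated one day ahead. Test compounds came as serial dilutions of 10 mM DMSO stocks.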

Assay [2] addresses T1, human TRPV1. In words: Acid Activation Assay (pH 5.0, intracellular Ca2+, FLIPR). Format: cell-based. Conditions: percentage of the maximal pH 5.0-induced response remaining; recombinant HEK293 hTRPV1 cells; maximum concentration tested 37.5 μM. Put shortly: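 Readout: peak [Ca2+]i fluorescence over baseline on FLIPR, expressed as percentage remaining of the maximal pH 5.0-evoked signal. Stable hTRPV1-HEK293 cells with Calcium-4 dye received compound (12 half-log concentrations, maximum 37.5 μM) 3 min before acidic pH 5.0 buffer.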

The text below walks through data of patent publication US8969325B2, “TRPV1 antagonists” (AbbVie Inc., priority 2011, dated 2015).

As a reminder, the IC50 is the concentration needed to halve the response being measured.

T1 sequence (Q8NER1 whole entry): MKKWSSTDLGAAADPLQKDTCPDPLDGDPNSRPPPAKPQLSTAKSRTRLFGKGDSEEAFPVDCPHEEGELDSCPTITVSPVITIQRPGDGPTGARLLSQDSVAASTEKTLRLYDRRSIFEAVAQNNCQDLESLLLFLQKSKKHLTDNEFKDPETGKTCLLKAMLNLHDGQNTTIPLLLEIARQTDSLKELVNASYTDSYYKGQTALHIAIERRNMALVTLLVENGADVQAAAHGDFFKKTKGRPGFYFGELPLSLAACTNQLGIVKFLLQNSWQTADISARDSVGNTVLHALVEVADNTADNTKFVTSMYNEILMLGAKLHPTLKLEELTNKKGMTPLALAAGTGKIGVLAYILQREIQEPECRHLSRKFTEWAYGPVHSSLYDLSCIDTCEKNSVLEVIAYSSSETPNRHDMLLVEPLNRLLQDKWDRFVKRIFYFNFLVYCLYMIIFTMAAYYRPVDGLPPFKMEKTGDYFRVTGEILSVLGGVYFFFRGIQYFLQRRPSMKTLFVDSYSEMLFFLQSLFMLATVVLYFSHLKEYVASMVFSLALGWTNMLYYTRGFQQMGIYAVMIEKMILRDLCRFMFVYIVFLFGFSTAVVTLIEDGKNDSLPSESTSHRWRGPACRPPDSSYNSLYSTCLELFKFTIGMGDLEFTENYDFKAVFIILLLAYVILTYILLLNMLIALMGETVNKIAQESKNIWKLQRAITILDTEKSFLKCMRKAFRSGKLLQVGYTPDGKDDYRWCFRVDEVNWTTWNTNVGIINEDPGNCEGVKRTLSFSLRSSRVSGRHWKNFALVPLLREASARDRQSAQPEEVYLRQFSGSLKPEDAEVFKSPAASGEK

As for `CC1(C)C[C@@H](NC(=O)Nc2ccc3c(c2)NC(=O)N(CCO)C3)c2ccc(Cl)c(F)c2O1` [Example 61, 1-[(4R)-7-chloro-8-fluoro-2,2-dimethyl-3,4-dihydro-2H-chromen-4-yl]-3-[3-(2-hydroxyethyl)-2-oxo-1,2,3,4-tetrahydroquinazolin-7-yl]urea], the IC50 at human TRPV1 [1] is 1.2 µM. The “human TRPV1 H^+ (max % remain)” value at human TRPV1 [2] is listed as 2%.
Take `CC1(C)C[C@@H](NC(=O)Nc2ccc3c(c2)NC(=O)N(CCO)C3)c2ccc(C(F)(F)F)nc2O1` [Example 62, 1-[(4R)-2,2-dimethyl-7-(trifluoromethyl)-3,4-dihydro-2H-pyrano[2,3-b]pyridin-4-yl]-3-[3-(2-hydroxyethyl)-2-oxo-1,2,3,4-tetrahydroquinazolin-7-yl]urea]: on human TRPV1 [1], the IC50 was found to be 1.5 µM. Further, the “human TRPV1 H^+ (max % remain)” value at human TRPV1 [2] was determined as 9%.
For `CC1(C)C[C@@H](NC(=O)Nc2ccc3c(c2)NC(=O)N(CCO)C3)c2ccc(Br)cc2O1` [Example 63, 1-[(4R)-7-bromo-2,2-dimethyl-3,4-dihydro-2H-chromen-4-yl]-3-[3-(2-hydroxyethyl)-2-oxo-1,2,3,4-tetrahydroquinazolin-7-yl]urea], in that order: 0.097 µM and 3%.
For `Cn1c(=O)ccc2c(NC(=O)N[C@@H]3CCOc4cc(C(F)(F)F)ccc43)cccc21` [Example 64, 1-(1-methyl-2-oxo-1,2-dihydroquinolin-5-yl)-3-[(4R)-7-(trifluoromethyl)-3,4-dihydro-2H-chromen-4-yl]urea], in that order: 0.014 µM and 26%.
Consider `Cn1c(=O)ccc2c(NC(=O)N[C@@H]3CC4(CCCC4)Oc4ccccc43)cccc21` [Example 65, 1-[(4R)-3,4-dihydrospiro[chromene-2,1′-cyclopentan]-4-yl]-3-(1-methyl-2-oxo-1,2-dihydroquinolin-5-yl)urea], for which the IC50 at human TRPV1 [1] is 0.028 µM. Besides, at human TRPV1 [2], the “human TRPV1 H^+ (max % remain)” value is 37%.
On to `CCC1(CC)C[C@@H](NC(=O)Nc2cccc3c2ccc(=O)n3C)c2cccc(F)c2O1` [Example 66, 1-[(4R)-2,2-diethyl-8-fluoro-3,4-dihydro-2H-chromen-4-yl]-3-(1-methyl-2-oxo-1,2-dihydroquinolin-5-yl)urea], for which the IC50 on human TRPV1 [1] was 0.015 µM. The “human TRPV1 H^+ (max % remain)” value on human TRPV1 [2] is on record as 42%.
As to `CCC1(CC)C[C@@H](NC(=O)Nc2cccc3c2ccc(=O)n3C)c2ccccc2O1` [Example 67, 1-[(4R)-2,2-diethyl-3,4-dihydro-2H-chromen-4-yl]-3-(1-methyl-2-oxo-1,2-dihydroquinolin-5-yl)urea], the half-inhibitory concentration (IC50) on human TRPV1 [1] was 0.017 µM. Besides, the “human TRPV1 H^+ (max % remain)” value at human TRPV1 [2] came out at 41%.
`Cn1c(=O)ccc2c(NC(=O)N[C@@H]3CCc4cc(C(C)(C)C)ccc43)cccc21` [Example 68, 1-[(1R)-5-tert-butyl-2,3-dihydro-1H-inden-1-yl]-3-(1-methyl-2-oxo-1,2-dihydroquinolin-5-yl)urea]: the IC50 on human TRPV1 [1] is 0.02 µM. Moreover, the “human TRPV1 H^+ (max % remain)” value at human TRPV1 [2] is listed as 34%.
The like results for `CCC1(CC)C[C@@H](NC(=O)Nc2cccc3c2ccc(=O)n3C)c2ccc(C(F)(F)F)cc2O1` [Example 69, 1-[(4R)-2,2-diethyl-7-(trifluoromethyl)-3,4-dihydro-2H-chromen-4-yl]-3-(1-methyl-2-oxo-1,2-dihydroquinolin-5-yl)urea] were, in that order, 0.055 µM and 13%.
Turning to `CCC1(CC)C[C@@H](NC(=O)Nc2cccc3c2ccc(=O)n3C)c2ccc(Cl)cc2O1` [Example 70, 1-[(4R)-7-chloro-2,2-diethyl-3,4-dihydro-2H-chromen-4-yl]-3-(1-methyl-2-oxo-1,2-dihydroquinolin-5-yl)urea], the IC50 on human TRPV1 [1] is 0.029 µM. Also, at human TRPV1 [2], the “human TRPV1 H^+ (max % remain)” value is given as 17%.
The like results for `Cn1c(=O)ccc2c(NC(=O)N[C@@H]3CC(CF)(CF)Oc4ccc(F)cc43)cccc21` [Example 71, 1-[(4R)-6-fluoro-2,2-bis(fluoromethyl)-3,4-dihydro-2H-chromen-4-yl]-3-(1-methyl-2-oxo-1,2-dihydroquinolin-5-yl)urea] were, in that order, 0.029 µM and 46%.
